± gives the uncertainty stated by the source. Some results are limits rather than exact numbers.

In this series the test system is ozone. Kind of series: apparent second-order rate constant for reaction with ozone (kapp,O3) (M-1 s-1); higher = faster oxidation by ozone. Conditions: pH 7; temperature: 22 C; OH radical scavenger: tBuOH 80 mM; phosphate 4 mM. The protocol: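 Apparent second-order rate constants for reaction with ozone at pH 7 were determined by multicompound competition kinetics. Mixtures of targets and competitors (10 ug/L each) were ozonated in 4 mM phosphate buffer, pH 7, with 80 mM tBuOH as OH-radical scavenger, at 22 ± 1 °C. Peak-area abatement was measured by HPLC-HRMS/MS and k was derived from ln-ln slopes against competitors with known k (R2 > 0.9, >= 10 points, slope 0.1-10). Experiments were run in triplicate on 3 days; the value is the mean over valid competitors ± SD.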
For `CC(C)(Oc1ccc(Cl)cc1)C(=O)O` [Clofibric acid], the “apparent second-order rate constant” value stood at 23 ± 3. In the case of `CC[N+]1([O-])CCCC1CNC(=O)c1cc(S(N)(=O)=O)ccc1OC` (stereo not drawn) [Sulpiride-N-oxide] it was 41 ± 5; in that of `CN1CCN2c3ncc(O)cc3Cc3ccccc3C2C1` (stereo not drawn) [8-Hydroxymirtazapine], 5.4e+07 ± 1.2e+07. The result for `Nc1ccc(S(=O)(=O)Nc2ccccn2)cc1` [Sulfapyridine] reads 537000 ± 180000; that for `CN1CCC23CCCCC2C1Cc1ccc(O)cc13` (stereo not drawn) [Dextrorphan], 1.87e+06 ± 170000. The result for `C/C(=C\Cc1c(O)c(C)c2c(c1O)C(=O)OC2)CCC(=O)O` [6-O-Desmethyl mycophenolic acid] reads 9.2e+07 ± 2e+07. As for `COc1c(CSc2nc3ccc(OC(F)F)cc3[nH]2)[nH]ccc1=O` [4'-O-Demethyl-pantoprazole sulfide], the “apparent second-order rate constant” value stood at 21000 ± 2000. In the case of `Cc1cc(=O)[nH]c2c1NC(=O)c1cccnc1N2C1CC1` [2-Hydroxynevirapine] it was 1.56e+07 ± 1.2e+06; in that of `CN1C(=O)CCC1c1cccnc1` (stereo not drawn) [Cotinine], 2.9 ± 0.3; in that of `COCC(=O)Nc1c(I)c(C(=O)NCC(O)CO)c(I)c(C(=O)N(C)CC(O)CO)c1I` (stereo not drawn) [Iopromide], 2.14 ± 0.23. The result for `O=c1ccn(C2OC(CO)C(O)C2(F)F)c(=O)[nH]1` (stereo not drawn) [2'-Deoxy-2',2'-difluorouridine] reads 562 ± 27; that for `CCCCc1ncc(C=C(Cc2cccs2)C(=O)O)n1Cc1ccc(C(=O)O)cc1` [Eprosartan], 1.57e+06 ± 140000.

As for `O=C(O)Cc1ccccc1Nc1c(Cl)cc(O)cc1Cl` [4'-Hydroxydiclofenac], the “apparent second-order rate constant” value worked out at 6.95 ± 0.38.

Turning to `CC1CC2C(C(O)CC3(C)C2CCC3(O)C(=O)CO)C2(C)C=CC(=O)C=C12` (stereo not drawn) [Methylprednisolone], the “apparent second-order rate constant” value was 87 ± 4.5.

`C[N+](C)(CCOC(c1ccccc1)c1ccccc1)C1OC(C(=O)[O-])C(O)C(O)C1O` (stereo not drawn) [Diphenhydramine-N-glucuronide]: the “apparent second-order rate constant” value is 3.6 ± 0.4. In the case of `O=C(O)COCC[N+]1([O-])CCN(C(c2ccccc2)c2ccc(Cl)cc2)CC1` (stereo not drawn) [Cetirizine-N-oxide] it was 5670 ± 460; in that of `Cc1ccc2nc(-c3ccc(C(=O)O)cc3)c(CC(=O)N(C)C)n2c1` [Zolpidem carboxylic acid], 6.3e+06 ± 400000. In the case of `CC12CCC(=O)C=C1CCC1C2C(O)CC2(C)C1CCC2(O)C(=O)CO` (stereo not drawn) [Hydrocortisone] it was 420 ± 25.

In the case of `Nc1ccc(S(=O)(=O)Nc2nccs2)cc1` [Sulfathiazole], the “apparent second-order rate constant” value came out at 9.8e+06 ± 700000. In the case of `Cn1c(=O)[nH]c2[nH]c(=O)n(C)c2c1=O` [1,7-Dimethyluric acid] it was 6.6e+07 ± 1.4e+07; in that of `Nc1ccn(C2OC(CO)C(O)C2(F)F)c(=O)n1` (stereo not drawn) [Gemcitabine], 390 ± 30; in that of `CCCC1CC(C(=O)NC(C(C)Cl)C2OC(S(C)=O)C(O)C(O)C2O)N(C)C1` (stereo not drawn) [Clindamycin-sulfoxide], 336000 ± 30000. Take `C#CCN(C)C(C)Cc1ccccc1` (stereo not drawn) [Deprenyl]: the “apparent second-order rate constant” value was found to be 930000 ± 81000.

As to `O=C(O)C(c1ccccc1)C1CCCCN1` (stereo not drawn) [Ritalinic acid], the “apparent second-order rate constant” value is 139 ± 7.2. The result for `Cc1c(NC=O)c(=O)n(-c2ccccc2)n1C` [4-Formylaminoantipyrine] reads 61000 ± 14000; that for `CCC1OC(=O)C(C)C(OC2CC(C)(OC)C(O)C(C)O2)C(C)C(OC2OC(C)CC(NC)C2O)C(C)(OC)CC(C)C(=O)C(C)C(O)C1(C)O` (stereo not drawn) [N-Desmethylclarithromycin], 6500 ± 520. In the case of `Nc1ccn([C@@H]2CS[C@H](CO)O2)c(=O)n1` [Lamivudine] it was 61000 ± 14000. In the case of `NS(=O)(=O)c1cc2c(cc1Cl)NCNS2(=O)=O` [Hydrochlorothiazide] it was 3000 ± 300; in that of `CC[C@H]1OC(=O)[C@H](C)[C@@H](O[C@H]2C[C@@](C)(OC)[C@@H](O)[C@H](C)O2)[C@H](C)[C@@H](O[C@@H]2O[C@H](C)C[C@H]([N+](C)(C)[O-])[C@H]2O)[C@](C)(OC)C[C@@H](C)C(=O)[C@H](C)[C@@H](O)[C@]1(C)O` [Clarithromycin-N-oxide], less than 0.401. On to `Nc1ccc(S(=O)(=O)Nc2ccc(O)cn2)cc1` [5-Hydroxysulfapyridine], for which the “apparent second-order rate constant” value came to 1.6e+08 ± 3e+07.

As for `CC(C)NCC(O)COc1ccc(CC(N)=O)cc1` (stereo not drawn) [Atenolol], the “apparent second-order rate constant” value was 1580 ± 72. In the case of `CN(C)CCCC1(c2ccc(F)cc2)OCc2cc(C#N)ccc21` (stereo not drawn) [Citalopram] it was 12600 ± 1100; in that of `CCOC(=O)c1c(COCC(=O)O)nc(C)c(C(=O)OC)c1-c1ccccc1Cl` [O-Des[2-aminoethyl]-O-carboxymethyl-dehydroamlodipine], 0.401 ± 0.014; in that of `O=C(c1ccccc1)c1ccccc1` [Benzophenone], less than 0.401.

As to `Cc1cc(N(C2OC(C(=O)O)C(O)C(O)C2O)S(=O)(=O)c2ccc(N)cc2)no1` (stereo not drawn) [Sulfamethoxazole-N1-glucuronide], the “apparent second-order rate constant” value was found to be 37000 ± 8000.

As to `CNC(=C[N+](=O)[O-])NCC[S+]([O-])Cc1ccc(CN(C)C)o1` (stereo not drawn) [Ranitidine-S-oxide], the “apparent second-order rate constant” value was found to be 1.75e+06 ± 70000. In the case of `CNCCCC1(c2ccc(F)cc2)OCc2cc(C#N)ccc21` (stereo not drawn) [N-Desmethylcitalopram] it was 532 ± 28; in that of `CC(N)Cc1ccc(O)cc1` (stereo not drawn) [4-Hydroxyamphetamine], 2.48e+06 ± 220000. The result for `O=c1ncnc2[nH][nH]cc1-2` [Allopurinol] reads 3.9 ± 0.4. In the case of `COc1ccc2c(c1)C13CCCCC1C(C2)N(C)CC3` (stereo not drawn) [Dextromethorphan] it was 5580 ± 96; in that of `COc1ccc2c3c1OC1C(O)C=CC4C(C2)NCCC341` (stereo not drawn) [Norcodeine], 2.68e+06 ± 51000. As for `CCNCC(=O)Nc1c(C)cccc1C` [Lidocaine-N-desethyl], the “apparent second-order rate constant” value is 17000 ± 1700. The result for `C[C@H](C[C@@H](Cc1ccc(-c2ccccc2)cc1)NC(=O)CCC(=O)O)C(=O)O` [Sacubitrilat (LBQ657)] reads 16.7 ± 1.8. The result for `CC(=O)Nc1c(I)c(NC(C)=O)c(I)c(C(=O)O)c1I` [Diatrizoate] reads 230 ± 30; that for `COc1ccc(C2CC(=O)c3c(O)cc(O)cc3O2)cc1O` (stereo not drawn) [Hesperitin], 3.3e+07 ± 7e+06. The result for `CCC(C(=O)O)N1CCCC1=O` (stereo not drawn) [Levetiracetam acid] reads 0.66 ± 0.08; that for `CC(=O)Nc1ccc(S(=O)(=O)Nc2nc(C)cc(C)n2)cc1` [N4-Acetylsulfamethazine], 815 ± 43; that for `CNC(=C[N+](=O)[O-])NCCSCc1ccc(CN(C)C)o1` [Ranitidine], 6.4e+06 ± 500000. As for `O=C(O)COCCN1CCN(C(c2ccccc2)c2ccc(Cl)cc2)CC1` (stereo not drawn) [Cetirizine], the “apparent second-order rate constant” value was found to be 359000 ± 31000. In the case of `CNC(C)C(O)c1ccccc1` (stereo not drawn) [Ephedrine] it was 1720 ± 150; in that of `CC1(C)SC(CNC(=O)C(N)c2ccc(O)cc2)NC1C(=O)O` (stereo not drawn) [Amoxicillin impurity E], 9e+06 ± 1.9e+06.

Consider `CC12C=CC(=O)C=C1CCC1C2C(O)CC2(C)C1CCC2(O)C(=O)CO` (stereo not drawn) [Prednisolone], for which the “apparent second-order rate constant” value amounted to 104 ± 5.6.

Take `CN1CCN2c3ccccc3Cc3ccccc3C2C1` (stereo not drawn) [Mianserin]: the “apparent second-order rate constant” value stood at 1.94e+06 ± 100000. The result for `CC(=O)OC1C=CC2C3Cc4ccc(O)c5c4C2(CCN3C)C1O5` (stereo not drawn) [6-Acetylmorphine] reads 1.29e+07 ± 1.1e+06. As to `CC(=O)Nc1ccc(S(=O)(=O)Nc2nccs2)cc1` [N4-Acetylsulfathiazole], the “apparent second-order rate constant” value is 1.02e+07 ± 1.2e+06. In the case of `CN(C)CCC(c1ccccc1)c1ccccn1` (stereo not drawn) [Pheniramine] it was 17600 ± 1700. In the case of `CCC1OC(=O)C(C)C(OC2CC(C)(OC)C(O)C(C)O2)C(C)C(OC2OC(C)CC(N(C)C)C2O)C(C)(OC)CC(C)C(=O)C(C)C(O)C1(C)O` (stereo not drawn) [Clarithromycin] it was 65000 ± 15000; in that of `O=C1Nc2c(CO)ccnc2N(C2CC2)c2ncccc21` [12-Hydroxynevirapine], 392 ± 21. The result for `CC(C)OC(=O)C(C)(C)Oc1ccc(C(=O)c2ccc(Cl)cc2)cc1` [Fenofibrate] reads 1.27 ± 0.17; that for `Nc1cc(Cl)c(S(N)(=O)=O)cc1S(N)(=O)=O` [4-Amino-6-chlorobenzene-1,3-disulfonamide], 90.5 ± 4.7. Consider `Cc1cc(C)nc(NS(=O)(=O)c2ccc(N)cc2)n1` [Sulfamethazine], for which the “apparent second-order rate constant” value turned out to be 933000 ± 81000. The result for `CC(=O)Nc1ccc(OS(=O)(=O)O)cc1` [Paracetamol-sulfate] reads 3.3 ± 0.3; that for `Cc1ccnc2c1NC(=O)c1cccnc1N2C1CC1` [Nevirapine], 86 ± 9.
